According to patent US10555532B2, “Plant growth-promoting bacteria and methods of use” (priority 2013, dated 2020):

Legend:
Corn = Corn growth, bacteria with plant-growth-promoting chemicals; type: in vivo; conditions: 2 weeks
Protocol: (§1) The selected strains were grown in minimal media (KH2PO4 3 g, Na2HPO4 6 g, NH4Cl 1 g, NaCl 0.50 g, MgSO4 7H2O 0.15 g, CaCl2 2H2O 0.013 g, and glucose 1 g, per L dry weight).

Soybeans = assay: Soybean growth, bacteria with plant-growth-promoting chemicals; type: in vivo; conditions: 2 weeks
Protocol: as §1

SMILES	Comparison to Uninoculated (Corn; corn height)	Avg. Height (cm) (Corn; corn, with or without 2,3-butanediol or yeast extract)	Comparison to Uninoculated (Soybeans; soybean height)	Avg. Height (cm) (Soybeans; soybeans, with or without glycerol, 2,3-butanediol or yeast extract)
CC(O)C(C)O (stereo not shown) [Uninoculated and 2,3-butanediol, 2,3-butanediol]	105.8%	16.03 cm		
OCC(O)CO [Uninoculated and Glycerol, glycerol]			109.8%	12.34 cm
